Columns and labels:
Heliothis virescens = assay: Antilepidopteran activity against tobacco budworm eggs assessed as minimum emergent larvicide concentration after 6 to 7 days; format: functional
Spodoptera exigua = assay: Antilepidopteran activity against beet armyworm eggs assessed as minimum emergent larvicide concentration after 6 to 7 days; format: functional

Structure (SMILES) | Activity (Heliothis virescens) [ppm] | Activity (Spodoptera exigua) [ppm]
C[C@@H]1C(=O)C[C@@H](O)CC/C=C/C=C\CC[C@H](C)OC(=O)[C@@H]2O[B-]34O[C@@H](C(=O)O[C@@H](C)CC/C=C\C=C\CC[C@H](O)CC(=O)[C@@H](C)[C@@H]5CC[C@](C)(O)[C@]2(O5)O3)[C@@]2(O[C@H]1CC[C@]2(C)O)O4 [TARTROLON C] | 125 | 125
CC[C@H]1CCC[C@H](O[C@H]2CC[C@H](N(C)C)[C@@H](C)O2)[C@@H](C)C(=O)C2=C[C@@H]3[C@@H](C=C[C@@H]4C[C@@H](O[C@@H]5O[C@@H](C)[C@H](OC)[C@@H](OC)[C@H]5OC)C[C@@H]34)[C@@H]2CC(=O)O1 [SPINOSYN A] | 0.4 | 3

From ChEMBL document CHEMBL1158895, “Tartrolone C: a novel insecticidal macrodiolide produced by Streptomyces sp. CP1130” (2003)
